# Results reported in US20250290074A1, “TARGETED TREATMENT OF SPLICEOPATHY-INDUCED NEUROLOGICAL DISORDERS” (Auttx, LLC, priority 2022, published 2025).
# Strand notation (5' to 3'): a small letter for the sugar, then the base; units joined by * are phosphorothioate-linked, units joined directly phosphodiester-linked; [ ] holds rarer units or linkages, { } end groups; capitals alone tell only the bases. e = 2'-O-(2-methoxyethyl) (MOE); [5mC] = 5-methylcytosine
# How the values were obtained:
# hsHNRNP L mRNA = assay: Time-course experiment, ASOs at 30 nM, hnRNP L mRNA by bDNA in BE(2)-M17 cells; format: cell-based, Homo sapiens; conditions: 30 nM ASO, mock controls set to 100%, incubations 24 h, 48 h, 72 h, time point not given
# Experimental: Lipofectamine3000 (LF3000) was again used as the transfection agent. The transfection mixture was prepared identically on three plates. […] In this case, no outliers were removed. Data were generated in biological quadruplicates.
# FIG. 26 includes a comparison of results from this study next to results from Example 7. Observing the results after 24 h incubation, similar data from the analysis in Example 7 were reproduced here.
# [1] = system: human hnRNP L (hsHNRNP L) mRNA; assay: 5-point dose response (DRC) of ASOs, hnRNP L mRNA by branched DNA assay in BE(2)-M17 cells; format: cell-based; conditions: 24 h; for max. upregulation [%] (MV normalized hsHNRNP L/hsGAPDH): Lipofectamine3000, highest 120 nM, four 4-fold dilutions, bDNA, negative controls set to 100%; for EC50: hsHNRNP L mRNA upregulation, XLfit
# Text: Data were generated in biological quadruplicates. […] No significant decrease in hsGAPDH mRNA levels was observed.
# Details and data are shown in Table 9A-9B, FIG. 24, and FIG. 25A-25E. In some cases, there was dose dependent hsHNRNP L on-target mRNA upregulation to varying degrees when cells were transfected with ASO compounds of interest.
Substance,MV normalized hsHNRNP L/hsGAPDH (hsHNRNP L mRNA) [%],max. upregulation [%] (MV normalized hsHNRNP L/hsGAPDH) [1],EC50 [1] [nM]
"Skip-6A-2: ASO AGTCACGGTACACATCCGCTAC (SEQ ID NO: 51), fully 2′-MOE, 5′-methyl C, phosphorothioate; upstream intron (antisense eA*eG*eT*e[5mC]*eA*e[5mC]*eG*eG*eT*eA*e[5mC]*eA*e[5mC]*eA*eT*e[5mC]*e[5mC]*eG*e[5mC]*eT*eA*e[5mC]; listed as Homo sapiens)",1.8,7.2,18.5
"Skip-6A-1: ASO GTACACATCCGCTACAATTTTT (SEQ ID NO: 50), fully 2′-MOE, 5′-methyl C, phosphorothioate; upstream intron of hnRNP L exon 6A (antisense eG*eT*eA*e[5mC]*eA*e[5mC]*eA*eT*e[5mC]*e[5mC]*eG*e[5mC]*eT*eA*e[5mC]*eA*eA*eT*eT*eT*eT*eT; listed as Homo sapiens)",13.0,9.1,15.2
"Skip-6A-3: ASO TAAATACAAGTCACGGTACACA (SEQ ID NO: 52), fully 2′-MOE, 5′-methyl C, phosphorothioate; upstream intron (antisense eT*eA*eA*eA*eT*eA*e[5mC]*eA*eA*eG*eT*e[5mC]*eA*e[5mC]*eG*eG*eT*eA*e[5mC]*eA*e[5mC]*eA; listed as Homo sapiens)",29.0,22.1,9.29
"Skip-6A-12: ASO TGAAAGATGGCGTCCCATCAAA (SEQ ID NO: 61), fully 2′-MOE, 5′-methyl C, phosphorothioate; exon 6A (antisense eT*eG*eA*eA*eA*eG*eA*eT*eG*eG*e[5mC]*eG*eT*e[5mC]*e[5mC]*e[5mC]*eA*eT*e[5mC]*eA*eA*eA; listed as Homo sapiens)",14.5,36.6,16.7
"Skip-6A-11: ASO ATGGCGTCCCATCAAACATACA (SEQ ID NO: 60), fully 2′-MOE, 5′-methyl C, phosphorothioate; exon 6A (antisense eA*eT*eG*eG*e[5mC]*eG*eT*e[5mC]*e[5mC]*e[5mC]*eA*eT*e[5mC]*eA*eA*eA*e[5mC]*eA*eT*eA*e[5mC]*eA; listed as Homo sapiens)",38.3,47.8,7.93
"Skip-6A-17: ASO TGGACGCTTCAACAGTGAGTTA (SEQ ID NO: 66), fully 2′-MOE, 5′-methyl C, phosphorothioate; exon 6A (antisense eT*eG*eG*eA*e[5mC]*eG*e[5mC]*eT*eT*e[5mC]*eA*eA*e[5mC]*eA*eG*eT*eG*eA*eG*eT*eT*eA; listed as Homo sapiens)",64.5,46.9,10.6
"5UTR-V1-3: ASO GCAGCAGCCTCCGCGACATGGC (SEQ ID NO: 49), fully 2′-MOE, 5′-methyl C, phosphorothioate; hnRNP L 5′ UTR (antisense eG*e[5mC]*eA*eG*e[5mC]*eA*eG*e[5mC]*e[5mC]*eT*e[5mC]*e[5mC]*eG*e[5mC]*eG*eA*e[5mC]*eA*eT*eG*eG*e[5mC]; listed as Homo sapiens)",–,22.4,–
"Skip-6A-20: ASO CTGTATTTTCTCTTACCATTGG (SEQ ID NO: 69), fully 2′-MOE, 5′-methyl C, phosphorothioate; exon 6A (antisense e[5mC]*eT*eG*eT*eA*eT*eT*eT*eT*e[5mC]*eT*e[5mC]*eT*eT*eA*e[5mC]*e[5mC]*eA*eT*eT*eG*eG; listed as Homo sapiens)",68.3,71.6,5.04
"5UTR-V1-1: ASO ATGGCGGCGCAGAACCCGCCTC (SEQ ID NO: 47), fully 2′-MOE, 5′-methyl C, phosphorothioate; hnRNP L 5′ UTR (antisense eA*eT*eG*eG*e[5mC]*eG*eG*e[5mC]*eG*e[5mC]*eA*eG*eA*eA*e[5mC]*e[5mC]*e[5mC]*eG*e[5mC]*e[5mC]*eT*e[5mC]; listed as Homo sapiens)",–,11.4,–
"Skip-6A-15: ASO AGTGAGTTAGCACAGTTCTGAA (SEQ ID NO: 64), fully 2′-MOE, 5′-methyl C, phosphorothioate; exon 6A (antisense eA*eG*eT*eG*eA*eG*eT*eT*eA*eG*e[5mC]*eA*e[5mC]*eA*eG*eT*eT*e[5mC]*eT*eG*eA*eA; listed as Homo sapiens)",63.4,55.8,7.45
"Skip-6A-14: ASO TTAGCACAGTTCTGAAAGATGG (SEQ ID NO: 63), fully 2′-MOE, 5′-methyl C, phosphorothioate; exon 6A (antisense eT*eT*eA*eG*e[5mC]*eA*e[5mC]*eA*eG*eT*eT*e[5mC]*eT*eG*eA*eA*eA*eG*eA*eT*eG*eG; listed as Homo sapiens)",55.8,52.3,6.41
"Skip-6A-13: ASO CAGTTCTGAAAGATGGCGTCCC (SEQ ID NO: 62), fully 2′-MOE, 5′-methyl C, phosphorothioate; exon 6A (antisense e[5mC]*eA*eG*eT*eT*e[5mC]*eT*eG*eA*eA*eA*eG*eA*eT*eG*eG*e[5mC]*eG*eT*e[5mC]*e[5mC]*e[5mC]; listed as Homo sapiens)",56.0,53.3,3.97
"Skip-6A-8: ASO ATACACTGCGACCCTGCATCAC (SEQ ID NO: 57), fully 2′-MOE, 5′-methyl C, phosphorothioate; upstream intron/exon (antisense eA*eT*eA*e[5mC]*eA*e[5mC]*eT*eG*e[5mC]*eG*eA*e[5mC]*e[5mC]*e[5mC]*eT*eG*e[5mC]*eA*eT*e[5mC]*eA*e[5mC]; listed as Homo sapiens)",26.0,18.0,8.54
"Skip-6A-5: ASO ATGGTTTTACAGTCATAAATAC (SEQ ID NO: 54), fully 2′-MOE, 5′-methyl C, phosphorothioate; upstream intron (antisense eA*eT*eG*eG*eT*eT*eT*eT*eA*e[5mC]*eA*eG*eT*e[5mC]*eA*eT*eA*eA*eA*eT*eA*e[5mC]; listed as Homo sapiens)",67.3,41.6,7.25
"Skip-6A-18: ASO TACCATTGGACGCTTCAACAGT (SEQ ID NO: 67), fully 2′-MOE, 5′-methyl C, phosphorothioate; exon 6A (antisense eT*eA*e[5mC]*e[5mC]*eA*eT*eT*eG*eG*eA*e[5mC]*eG*e[5mC]*eT*eT*e[5mC]*eA*eA*e[5mC]*eA*eG*eT; listed as Homo sapiens)",42.7,47.3,9.1
"Skip-6A-9: ASO TCAAACATACACTGCGACCCTG (SEQ ID NO: 58), fully 2′-MOE, 5′-methyl C, phosphorothioate; upstream intron/exon (antisense eT*e[5mC]*eA*eA*eA*e[5mC]*eA*eT*eA*e[5mC]*eA*e[5mC]*eT*eG*e[5mC]*eG*eA*e[5mC]*e[5mC]*e[5mC]*eT*eG; listed as Homo sapiens)",31.3,40.2,7.15
"Skip-6A-10: ASO GTCCCATCAAACATACACTGCG (SEQ ID NO: 59), fully 2′-MOE, 5′-methyl C, phosphorothioate; exon 6A (antisense eG*eT*e[5mC]*e[5mC]*e[5mC]*eA*eT*e[5mC]*eA*eA*eA*e[5mC]*eA*eT*eA*e[5mC]*eA*e[5mC]*eT*eG*e[5mC]*eG; listed as Homo sapiens)",42.1,49.2,5.79
"Skip-6A-6: ASO TGCATCACATGGTTTTACAGTC (SEQ ID NO: 55), fully 2′-MOE, 5′-methyl C, phosphorothioate; upstream intron (antisense eT*eG*e[5mC]*eA*eT*e[5mC]*eA*e[5mC]*eA*eT*eG*eG*eT*eT*eT*eT*eA*e[5mC]*eA*eG*eT*e[5mC]; listed as Homo sapiens)",81.7,65.1,6.23
"Skip-6A-4: ASO TACAGTCATAAATACAAGTCAC (SEQ ID NO: 53), fully 2′-MOE, 5′-methyl C, phosphorothioate; upstream intron (antisense eT*eA*e[5mC]*eA*eG*eT*e[5mC]*eA*eT*eA*eA*eA*eT*eA*e[5mC]*eA*eA*eG*eT*e[5mC]*eA*e[5mC]; listed as Homo sapiens)",26.9,24.0,18.9
"5UTR-V1-2: ASO TCCGCGACATGGCGGCGCAGAA (SEQ ID NO: 48), fully 2′-MOE, 5′-methyl C, phosphorothioate; hnRNP L 5′ UTR (antisense eT*e[5mC]*e[5mC]*eG*e[5mC]*eG*eA*e[5mC]*eA*eT*eG*eG*e[5mC]*eG*eG*e[5mC]*eG*e[5mC]*eA*eG*eA*eA; listed as Homo sapiens)",–,16.2,–
